The NIST ThermoML archive (doi:10.1021/je4009238)

How the values were obtained:
[1] = 101 kPa, Liquid
[2] = refractive index (Na D-line) (dimensionless); settings: 101.33 kPa, Liquid
[3] = xn = mol fraction of the nth substance listed; settings: 101 kPa, Liquid
[4] = refractive index (Na D-line) (dimensionless); xn = mol fraction of the nth substance listed; settings: 101 kPa, Liquid

CCCCCCn1cc[n+](C)c1.[Cl-] [1-hexyl-3-methylimidazolium chloride]
Settings	mass density, 288.15 K [kg/m3]	mass density, 298.15 K [kg/m3]	mass density, 308.15 K [kg/m3]	mass density, 318.15 K [kg/m3]	refractive index, 288.15 K	refractive index, 298.15 K	refractive index, 308.15 K	refractive index, 318.15 K	viscosity, 308.15 K [mPa·s]	viscosity, 318.15 K [mPa·s]
[1]	1047.99	1042.2	1036.43	1030.62	–	–	–	–	2044.2	884.2
[2]	–	–	–	–	1.5125	1.50953	1.50667	1.5039	–	–

CCCCCCn1cc[n+](C)c1.[Cl-] [1-hexyl-3-methylimidazolium chloride] + CN(C)C=O
Settings	mass density, [3] [kg/m3]	refractive index, [4]	viscosity, [3] [mPa·s]
288.15 K, x1 = 0.0312	964.44	1.44088	1.271
288.15 K, x1 = 0.0646	973.48	1.44818	1.715
288.15 K, x1 = 0.102	982	1.45488	2.392
288.15 K, x1 = 0.1456	990.33	1.46175	4.166
288.15 K, x1 = 0.196	998.49	1.46836	6.28
288.15 K, x1 = 0.2502	1005.77	1.47473	10.77
288.15 K, x1 = 0.3144	1013.08	1.4808	17.98
288.15 K, x1 = 0.3893	1020.04	1.48693	32.59
288.15 K, x1 = 0.4796	1026.84	1.49278	65.31
288.15 K, x1 = 0.591	1033.55	1.49886	134.94
288.15 K, x1 = 0.7249	1039.53	1.50429	232.47
288.15 K, x1 = 1	1047.99	1.5125	–
298.15 K, x1 = 0.0312	955.32	1.43634	1.097
298.15 K, x1 = 0.0646	964.62	1.44359	1.451
298.15 K, x1 = 0.102	973.43	1.45059	2.064
298.15 K, x1 = 0.1456	982.06	1.45751	2.874
298.15 K, x1 = 0.196	990.57	1.46433	4.815
298.15 K, x1 = 0.2502	998.08	1.47086	7.927
298.15 K, x1 = 0.3144	1005.74	1.47702	12.52
298.15 K, x1 = 0.3893	1012.97	1.48213	21.49
298.15 K, x1 = 0.4796	1019.96	1.48933	40.25
298.15 K, x1 = 0.591	1026.93	1.49567	76.98
298.15 K, x1 = 0.7249	1033.24	1.50108	178.3
298.15 K, x1 = 1	1042.2	1.50953	–
308.15 K, x1 = 0.0312	946.13	1.43187	0.961
308.15 K, x1 = 0.0646	955.75	1.43909	1.249
308.15 K, x1 = 0.102	964.86	1.44632	1.733
308.15 K, x1 = 0.1456	973.81	1.4533	2.348
308.15 K, x1 = 0.196	982.59	1.46038	3.817
308.15 K, x1 = 0.2502	990.42	1.46695	6.056
308.15 K, x1 = 0.3144	998.35	1.47335	9.115
308.15 K, x1 = 0.3893	1005.87	1.47856	15.08
308.15 K, x1 = 0.4796	1013.14	1.48595	26.46
308.15 K, x1 = 0.591	1020.36	1.49237	47.62
308.15 K, x1 = 0.7249	1026.94	1.49797	75.17
308.15 K, x1 = 1	1036.43	1.50667	2044.2
318.15 K, x1 = 0.0312	936.91	1.42765	0.852
318.15 K, x1 = 0.0646	946.92	1.43468	1.091
318.15 K, x1 = 0.102	956.28	1.44219	1.489
318.15 K, x1 = 0.1456	965.63	1.44909	1.957
318.15 K, x1 = 0.196	974.62	1.45652	3.113
318.15 K, x1 = 0.2502	982.82	1.46293	4.77
318.15 K, x1 = 0.3144	990.96	1.46974	6.88
318.15 K, x1 = 0.3893	998.8	1.47497	10.95
318.15 K, x1 = 0.4796	1006.38	1.48264	18.37
318.15 K, x1 = 0.591	1013.87	1.48916	31.33
318.15 K, x1 = 0.7249	1020.7	1.49498	47.69
318.15 K, x1 = 1	1030.62	1.5039	884.2

CCCCCCCC[n+]1ccn(C)c1.[Cl-] [1-methyl-3-octylimidazolium chloride]
Settings	mass density, 288.15 K [kg/m3]	mass density, 298.15 K [kg/m3]	mass density, 308.15 K [kg/m3]	mass density, 318.15 K [kg/m3]	refractive index, 288.15 K	refractive index, 298.15 K	refractive index, 308.15 K	refractive index, 318.15 K	viscosity, 308.15 K [mPa·s]	viscosity, 318.15 K [mPa·s]
[1]	1022.06	1015.97	1009.8	1003.62	–	–	–	–	155.03	65.95
[2]	–	–	–	–	1.49008	1.48709	1.48413	1.48122	–	–

CCCCCCCC[n+]1ccn(C)c1.[Cl-] [1-methyl-3-octylimidazolium chloride] + CN(C)C=O
Settings	mass density, [3] [kg/m3]	refractive index, [4]	viscosity, [3] [mPa·s]
288.15 K, x1 = 0.0306	962.61	1.4392	1.617
288.15 K, x1 = 0.0647	970.04	1.44535	2.007
288.15 K, x1 = 0.1021	976.96	1.4504	2.763
288.15 K, x1 = 0.1457	983.52	1.45598	4.132
288.15 K, x1 = 0.1939	989.54	1.46074	5.958
288.15 K, x1 = 0.2496	995.13	1.46531	8.425
288.15 K, x1 = 0.3143	1000.4	1.46967	13.28
288.15 K, x1 = 0.39	1005.26	1.47407	20.46
288.15 K, x1 = 0.4809	1009.79	1.47791	34.23
288.15 K, x1 = 0.5908	1013.76	1.48169	60.63
288.15 K, x1 = 0.7259	1017.15	1.48534	122.33
288.15 K, x1 = 1	1022.06	1.49008	–
298.15 K, x1 = 0.0306	953.41	1.43459	1.348
298.15 K, x1 = 0.0647	961.21	1.44113	1.629
298.15 K, x1 = 0.1021	968.34	1.44613	2.262
298.15 K, x1 = 0.1457	975.24	1.45203	3.234
298.15 K, x1 = 0.1939	981.46	1.45641	4.582
298.15 K, x1 = 0.2496	987.32	1.46173	6.215
298.15 K, x1 = 0.3143	992.89	1.46588	9.498
298.15 K, x1 = 0.39	997.98	1.47066	14.03
298.15 K, x1 = 0.4809	1002.82	1.47429	22.18
298.15 K, x1 = 0.5908	1006.97	1.47835	37.33
298.15 K, x1 = 0.7259	1010.6	1.48212	69.31
298.15 K, x1 = 1	1015.97	1.48709	–
308.15 K, x1 = 0.0306	944.19	1.43007	1.172
308.15 K, x1 = 0.0647	952.27	1.4361	1.448
308.15 K, x1 = 0.1021	959.68	1.44189	1.909
308.15 K, x1 = 0.1457	966.87	1.44766	2.615
308.15 K, x1 = 0.1939	973.37	1.45241	3.636
308.15 K, x1 = 0.2496	979.5	1.45731	4.753
308.15 K, x1 = 0.3143	985.36	1.46212	7.07
308.15 K, x1 = 0.39	990.69	1.46672	10.12
308.15 K, x1 = 0.4809	995.8	1.47089	15.15
308.15 K, x1 = 0.5908	1000.19	1.47504	24.36
308.15 K, x1 = 0.7259	1004.44	1.47897	43.04
308.15 K, x1 = 1	1009.8	1.48413	155.03
318.15 K, x1 = 0.0306	934.98	1.42562	1.013
318.15 K, x1 = 0.0647	943.27	1.43143	1.289
318.15 K, x1 = 0.1021	951.06	1.438	1.661
318.15 K, x1 = 0.1457	958.48	1.44342	2.182
318.15 K, x1 = 0.1939	965.3	1.44849	2.97
318.15 K, x1 = 0.2496	971.71	1.45347	3.753
318.15 K, x1 = 0.3143	977.79	1.4586	5.427
318.15 K, x1 = 0.39	983.45	1.46306	7.536
318.15 K, x1 = 0.4809	988.76	1.46765	10.77
318.15 K, x1 = 0.5908	993.39	1.47179	16.68
318.15 K, x1 = 0.7259	997.95	1.47589	28.25
318.15 K, x1 = 1	1003.62	1.48122	65.95

CN(C)C=O [dimethylformamide]
Settings	mass density, [1] [kg/m3]	refractive index, [2]	viscosity, [1] [mPa·s]
288.15 K	953.79	1.43304	0.936
298.15 K	944.26	1.42858	0.825
308.15 K	934.69	1.42381	0.736
318.15 K	925.16	1.41909	0.665

CN(C)C=O [dimethylformamide] + CCCCCCCC[n+]1ccn(C)c1.[Cl-]
x2 = 0
Settings	mass density, [3] [kg/m3]	refractive index, [4]	viscosity, [3] [mPa·s]
288.15 K	953.79	1.43304	0.936
298.15 K	944.26	1.42858	0.825
308.15 K	934.69	1.42381	0.736
318.15 K	925.16	1.41909	0.665

CN(C)C=O [dimethylformamide] + CCCCCCn1cc[n+](C)c1.[Cl-]
x2 = 0
Settings	mass density, [3] [kg/m3]	refractive index, [4]	viscosity, [3] [mPa·s]
288.15 K	953.79	1.43304	0.936
298.15 K	944.26	1.42858	0.825
308.15 K	934.69	1.42381	0.736
318.15 K	925.16	1.41909	0.665

CN(C)C=O [dimethylformamide] + CCCCn1cc[n+](C)c1.[Cl-]
x2 = 0
Settings	mass density, [3] [kg/m3]	refractive index, [4]	viscosity, [3] [mPa·s]
288.15 K	953.79	1.43304	0.936
298.15 K	944.26	1.42858	0.825
308.15 K	934.69	1.42381	0.736
318.15 K	925.16	1.41909	0.665

CN(C)C=O [dimethylformamide] + CCn1cc[n+](C)c1.[Cl-]
x2 = 0
Settings	mass density, [3] [kg/m3]	refractive index, [4]	viscosity, [3] [mPa·s]
288.15 K	953.79	1.43304	0.936
298.15 K	944.26	1.42858	0.825
308.15 K	934.69	1.42381	0.736
318.15 K	925.16	1.41909	0.665
